In one data set the test system is E. coli ATCC 25922. The method, then: (§1) Antibacterial activity against a panel of standard laboratory strains and clinical isolates.
(§2) Antimicrobial activity was evaluated against a panel of Gram-negative bacteria maintained by H3D, University of Cape Town, consisting of six laboratory reference strains and two clinical isolates. Briefly, bacterial colonies from an LB agar plate were picked and cultured in cation-adjusted Mueller Hinton broth (MHB) at 37°C with 180 rpm shaking, overnight. Cultures were […]
(§3) back diluted to reach a starting optical density at 600 nm (OD600) of 0.1 and then diluted 100- […]
(§4) media down polypropylene 96-well plates. Inoculum was added at a 1:1 ratio resulting in a […]
(§5) (Suppl. Table S2). Plates were incubated at 37°C for 20 h and the OD600 determined. Minimum inhibition concentrations (MICs) were determined from a minimum of three biological repeats. […]
(§6) the background absorbance.
(§7) Caution! All bacterial work was conducted using appropriate biosafety level 2 (BSL-2) practices.

The next data set deals with E. cloacae ATCC 700323. The method, then: as §1, §2, §3, §4, §5, §6, §7
(§8) Clinical isolates and reference strains were handled in a biosafety cabinet with proper PPE to prevent exposure and contamination.

For another data set, the system named is E. coli ATCC 700928. Here is the method: as §1, §2, §3, §4, §5, §6, §7, §8
The subject of data set [1] is E. cloacae NICD 16103 (C). The method, then: as §1, §2, §3, §4, §5, §6, §7, §8
Data set [2] concerns K. pneumoniae ATCC BAA-1705. Here is the method:
as §1, §2, §3, §4, §5, §6, §7, §8

Another data set concerns A. baumannii ATCC 19606. The method, then: as §1, §2, §3, §4, §5, §6, §7, §8
In a further data set the test system is P. aeruginosa PAO1. The method, then: as §1, §2, §3, §4, §5, §6, §7, §8
Data set [3] relates to A. baumannii NICD 15283 (C). Here is the method: as §1, §2, §3, §4, §5, §6, §7, §8
Another data set concerns E. cloacae NICD 16103. Format: cell-based, Enterobacter cloacae. The note with it: then MIC 20 h 37°C; for MIC after trypsin treatment: trypsin 0.15 U/mL pH 7.4 (picture: 1 mM), 1 h 37°C, inactivated 60°C 20 min.
For data set [4], the system named is HaCat cells. As to the kind of experiment: In vitro cytotoxicity screening against epidermal HaCat cells (MTT). As to conditions: 24 h exposure in total (21 h + 3 h MTT), OD570, three independent experiments in duplicate (n = 6).
The next data set deals with HepG2 cells. The note with it: previously reported, ref Van der Walt et al.; cited from earlier work.
The subject of data set [5] is HaCat cells. The note with it: previously reported, ref Van der Walt et al.; cited from earlier work. The method, then: The toxicity of the analogues was assessed against HaCat cells, which serve as a relevant model for the intended topical application of these peptides in burn wound care.
The subject of a further data set is mammalian erythrocytes. As to conditions: previously reported, ref Van der Walt et al.; cited from earlier work.

Where two headings read alike, the source gives them in different places. Ends that are not written are not given here.

On to GKVWKWIKSTARRLWN-NH2 [Opis16aCterKR], for which the “Modal MIC” value with E. coli ATCC 25922 (E. coli ATCC 25922, cation-adjusted MHB, ~5 x 10^5 CFU/mL, 37°C 20 h, OD600, triplicate experiments in duplicate (n = 6)) was 8 (8×) μg/mL; in the data set with E. cloacae ATCC 700323 (E. cloacae ATCC 700323, cation-adjusted MHB, ~5 x 10^5 CFU/mL, 37°C 20 h, OD600, n = 6), 8 (8×) μg/mL; in the data set with E. coli ATCC 700928 (E. coli ATCC 700928, cation-adjusted MHB, ~5 x 10^5 CFU/mL, 37°C 20 h, OD600, n = 6), 4 µg/mL; in data set [1] (E. cloacae NICD 16103 clinical isolate, cation-adjusted MHB, ~5 x 10^5 CFU/mL, 37°C 20 h, OD600, n = 6), 4 (4×) μg/mL; in data set [2] (K. pneumoniae ATCC BAA-1705, cation-adjusted MHB, ~5 x 10^5 CFU/mL, 37°C 20 h, OD600, n = 6), 8 µg/mL; with A. baumannii ATCC 19606 (A. baumannii ATCC 19606, cation-adjusted MHB, ~5 x 10^5 CFU/mL, 37°C 20 h, OD600, n = 6), 4 µg/mL. In addition, the “Modal MIC” value in the data set with P. aeruginosa PAO1 (P. aeruginosa PAO1, cation-adjusted MHB, ~5 x 10^5 CFU/mL, 37°C 20 h, OD600, n = 6) was 4 µg/mL; in [3] (A. baumannii NICD 15283 clinical isolate, cation-adjusted MHB, ~5 x 10^5 CFU/mL, 37°C 20 h, OD600, n = 6), 8 µg/mL. In addition, the “Selectivity index (HaCat LC50 / MIC)” value with E. coli ATCC 25922 (E. coli ATCC 25922 over HaCat cells) is 22.6; in the data set on E. cloacae ATCC 700323 (E. cloacae ATCC 700323 over HaCat cells), 22.6; in the data set on E. coli ATCC 700928 (E. coli ATCC 700928 over HaCat cells), 45.2; in data set [1] (E. cloacae NICD 16103 clinical isolate over HaCat cells), 45.2; in data set [2] (K. pneumoniae ATCC BAA-1705 over HaCat cells), 22.6; with A. baumannii ATCC 19606 (A. baumannii ATCC 19606 over HaCat cells), 45.2. In addition, the “Selectivity index (HaCat LC50 / MIC)” value was 45.2 with P. aeruginosa PAO1 (P. aeruginosa PAO1 over HaCat cells) and 22.6 in data set [3] (A. baumannii NICD 15283 clinical isolate over HaCat cells). For the same substance, the “MIC after trypsin treatment” value in the data set on E. cloacae NICD 16103 is > 32 µg/mL. Besides, the “HaCat toxicity LC50 + SD” value in the data set with HaCat cells [4] came out at 181 ± 8 µg/mL.

Usually LC50 stands for the concentration lethal to half of the exposed cells or organisms. As usually defined, the HC50 is the concentration that lyses half of the red blood cells. Regarding GKVWDWIKSTAKKLWN-NH2 [Opis16a], in the data set with HepG2 cells, the LC50 is 118 ± 8 µg/mL. Moreover, the “MIC in FCS (20%)” value against E. cloacae NICD 16103 (peptide preincubated in 20% FCS 1 h at 37°C) amounted to 64 µg/mL. In addition, the “MIC after trypsin treatment” value against E. cloacae NICD 16103 was > 32 µg/mL. Besides, the “HaCat toxicity LC50 + SD” value in the data set on HaCat cells [5] is 311 ± 12 µg/mL. Besides, in the data set on mammalian erythrocytes, the HC50 was > 256 µg/mL.
